Results published in the NIST ThermoML archive (doi:10.1007/s10765-005-8096-3).
Numbers after ± are expanded uncertainties.

Assay: refractive index (Na D-line) (dimensionless); xn = mol fraction of the nth substance listed
Conditions: 101 kPa, Liquid, Standard Abbe refractometry

CCCCc1ccccc1 [butylbenzene] + CCCCOC(C)=O
refractive index
Conditions	293.15 K	298.15 K	303.15 K	308.15 K	313.15 K
x2 = 0.049	1.48578 ± 0.00065	1.48339 ± 0.00066	1.48091 ± 0.00066	1.47847 ± 0.00067	1.47595 ± 0.00067
x2 = 0.1016	1.48141 ± 0.00067	1.47885 ± 0.00066	1.47649 ± 0.00067	1.47387 ± 0.00067	1.47154 ± 0.00065
x2 = 0.1545	1.47686 ± 0.00066	1.47443 ± 0.00066	1.47201 ± 0.00067	1.46946 ± 0.00067	1.46708 ± 0.00066
x2 = 0.1989	1.47295 ± 0.00066	1.47054 ± 0.00066	1.46814 ± 0.00067	1.46556 ± 0.00067	1.46318 ± 0.00065
x2 = 0.2515	1.46838 ± 0.00066	1.46596 ± 0.00066	1.46358 ± 0.00067	1.461 ± 0.00067	1.45858 ± 0.00066
x2 = 0.3023	1.46389 ± 0.00066	1.46143 ± 0.00066	1.45905 ± 0.00067	1.45651 ± 0.00067	1.45403 ± 0.00067
x2 = 0.3501	1.45956 ± 0.00066	1.45713 ± 0.00066	1.4547 ± 0.00066	1.45232 ± 0.00067	1.44977 ± 0.00068
x2 = 0.3997	1.45505 ± 0.00066	1.45258 ± 0.00066	1.45018 ± 0.00066	1.44769 ± 0.00067	1.44526 ± 0.00067
x2 = 0.45	1.45031 ± 0.00066	1.44787 ± 0.00066	1.44547 ± 0.00066	1.44298 ± 0.00067	1.44055 ± 0.00066
x2 = 0.4993	1.44563 ± 0.00066	1.44318 ± 0.00066	1.44078 ± 0.00066	1.43832 ± 0.00066	1.43589 ± 0.00067
x2 = 0.5496	1.44082 ± 0.00066	1.43837 ± 0.00067	1.43591 ± 0.00066	1.43351 ± 0.00066	1.43104 ± 0.00067
x2 = 0.6004	1.43586 ± 0.00066	1.43342 ± 0.00066	1.43102 ± 0.00067	1.42848 ± 0.00067	1.42602 ± 0.00067
x2 = 0.6499	1.43099 ± 0.00066	1.42852 ± 0.00067	1.42607 ± 0.00067	1.42354 ± 0.00067	1.42107 ± 0.00067
x2 = 0.6998	1.42593 ± 0.00067	1.42345 ± 0.00067	1.42099 ± 0.00067	1.41852 ± 0.00066	1.41609 ± 0.00066
x2 = 0.7517	1.4207 ± 0.00066	1.41819 ± 0.00067	1.41576 ± 0.00066	1.41331 ± 0.00067	1.41084 ± 0.00067
x2 = 0.801	1.41551 ± 0.00066	1.41312 ± 0.00066	1.4106 ± 0.00067	1.40817 ± 0.00066	1.40574 ± 0.00066
x2 = 0.8489	1.41049 ± 0.00065	1.40806 ± 0.00066	1.40567 ± 0.00066	1.40319 ± 0.00066	1.40078 ± 0.00067
x2 = 0.8999	1.40499 ± 0.00066	1.40257 ± 0.00065	1.40021 ± 0.00065	1.39782 ± 0.00066	1.39529 ± 0.00067
x2 = 0.9493	1.39969 ± 0.00065	1.39734 ± 0.00066	1.39484 ± 0.00066	1.39244 ± 0.00066	1.39 ± 0.00066
